Source: patent US10538555B2, “Macrocyclic inhibitors of the PD-1/PD-L1 and CD80(B7-1)/PD-L1 protein/protein interactions” (BRISTOL-MYERS SQUIBB COMPANY, priority 2014, dated 2020)
*1 amine or outer side, *2 acyl side, *3 side chain or, on linkers, in order; H or OH if unused. Where a SMILES comes first, the peptide text is derived from it. Bridges are numbered along the chain shown (N, C = ends). [ ]: non-standard residue; d: D form. ξ: configuration not given here. X7 = CCCC[C@@H](C(=O)C[C@@H](CO)C(=O)[*:2])N(C)[*:1]; Bta = N[C@@H](Cc1csc2ccccc12)C(=O)O; Hyp = O=C(O)[C@@H]1C[C@@H](O)CN1; NMeNle = CCCC[C@H](NC)C(=O)O; NMeA = CN[C@@H](C)C(=O)O; ξC = NC(CS)C(=O)O

Molecular target: T1, Human PD-L1/PD-1 (Homo sapiens, UniProt Q9NZQ7)
T1 construct: TVMV protease cleavage site (C); made in house; host or cells: HEK293T cells
Test: HTRF Human PD-L1/PD-1 binding assay (PD-1-Ig/PD-L1-His)
Conditions: PD-L1-His 10 nM, PD-1-Ig 20 nM; class symbol; read-out: HTRF Human PD-L1/PD-1 Binding Assay IC50 Range
Summary of the method: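 HTRF read-out (665/620 nm ratio) after 30 min equilibration with Eu-cryptate anti-Ig mAb (1 nM) and APC anti-His mAb (20 nM). Peptides preincubated 15 min with PD-L1-His (10 nM), then PD-1-Ig (20 nM) added for 15 min.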

T1 sequence (Q9NZQ7 with tags, fused parts or gaps): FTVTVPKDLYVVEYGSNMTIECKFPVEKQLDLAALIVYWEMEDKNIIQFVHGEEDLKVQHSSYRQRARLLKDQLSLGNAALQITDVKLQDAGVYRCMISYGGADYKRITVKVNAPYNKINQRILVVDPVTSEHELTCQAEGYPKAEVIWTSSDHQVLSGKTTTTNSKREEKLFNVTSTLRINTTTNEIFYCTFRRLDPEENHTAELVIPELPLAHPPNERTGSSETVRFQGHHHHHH

Structure (SMILES) | IC50
CCCC[C@H]1C(=O)N(C)[C@@H](C)C(=O)N[C@@H](CCCNC(=N)N)C(=O)NC(C(=O)NCC(N)=O)CSCC(=O)N[C@@H](Cc2ccc(O)cc2)C(=O)N(C)[C@@H](C)C(=O)N[C@@H](CC(N)=O)C(=O)N2CCC[C@H]2C(=O)N[C@@H](CC(N)=O)C(=O)N[C@@H](CC(C)C)C(=O)N2CCC[C@H]2C(=O)N[C@@H](Cc2c[nH]c3ccccc23)C(=O)N[C@@H](CO)C(=O)N[C@@H](Cc2c[nH]c3ccccc23)C(=O)N1C (stereo partly drawn) [Example 9136] ({CH2CO}-Y[NMeA]NPNLPWSW[NMeNle][NMeA]R[ξC]G-NH2; thioether N-14) | 10 to 99.9 nM
CCCC[C@H]1C(=O)N(C)[C@@H](C)C(=O)N[C@@H](CCCNC(=N)N)C(=O)NC(C(=O)NCC(N)=O)CSCC(=O)N[C@@H](Cc2ccc(O)cc2)C(=O)N(C)[C@@H](C)C(=O)N[C@@H](CC(N)=O)C(=O)N2CCC[C@H]2C(=O)N[C@@H](CC(N)=O)C(=O)N[C@@H](CC(C)C)C(=O)N2CCC[C@H]2C(=O)N[C@@H](Cc2c[nH]c3ccccc23)C(=O)N[C@@H](CO)C(=O)N[C@@H](Cc2csc3ccccc23)C(=O)N1C (stereo partly drawn) [Example 9137] ({CH2CO}-Y[NMeA]NPNLPWS[Bta][NMeNle][NMeA]R[ξC]G-NH2; thioether N-14) | 1 to 9.9 nM
CCCC[C@H]1C(=O)N(C)[C@@H](C)C(=O)N[C@@H](CCCNC(=N)N)C(=O)NC(C(=O)NCC(N)=O)CSCC(=O)N[C@@H](Cc2ccc(O)cc2)C(=O)N(C)[C@@H](C)C(=O)N[C@@H](CC(N)=O)C(=O)N2CCC[C@H]2C(=O)N[C@@H](CC(N)=O)C(=O)N[C@@H](CC(C)C)C(=O)N2C[C@H](O)C[C@H]2C(=O)N[C@@H](Cc2c[nH]c3ccccc23)C(=O)N[C@@H](CO)C(=O)N[C@@H](Cc2c[nH]c3ccccc23)C(=O)N1C (stereo partly drawn) [Example 9138] ({CH2CO}-Y[NMeA]NPNL[Hyp]WSW[NMeNle][NMeA]R[ξC]G-NH2; thioether N-14) | 1 to 9.9 nM
CCCC[C@H]1C(=O)N(C)[C@@H](C)C(=O)N[C@@H](CCCNC(=N)N)C(=O)NC(C(=O)NCC(N)=O)CSCC(=O)N[C@@H](Cc2ccc(O)cc2)C(=O)N(C)[C@@H](C)C(=O)N[C@@H](CC(N)=O)C(=O)N2CCC[C@H]2C(=O)N[C@@H](CC(N)=O)C(=O)N[C@@H](CC(C)C)C(=O)N2C[C@H](O)C[C@H]2C(=O)N[C@@H](Cc2c[nH]c3ccccc23)C(=O)N[C@@H](CO)C(=O)N[C@@H](Cc2csc3ccccc23)C(=O)N1C (stereo partly drawn) [Example 9139] ({CH2CO}-Y[NMeA]NPNL[Hyp]WS[Bta][NMeNle][NMeA]R[ξC]G-NH2; thioether N-14) | 1 to 9.9 nM
CCCC[C@H]1C(=O)N(C)[C@@H](CCCC)C(=O)N[C@@H](CO)C(=O)NC(C(=O)NCC(N)=O)CSCC(=O)N[C@@H](Cc2ccc(O)cc2)C(=O)N(C)[C@@H](C)C(=O)N[C@@H](CC(N)=O)C(=O)N2CCC[C@H]2C(=O)N[C@@H](CC(N)=O)C(=O)N[C@@H](CC(C)C)C(=O)N2CCC[C@H]2C(=O)N[C@@H](Cc2c[nH]c3ccccc23)C(=O)N[C@@H](CO)C(=O)N[C@@H](Cc2c[nH]c3ccccc23)C(=O)N1C (stereo partly drawn) [Example 9140] ({CH2CO}-Y[NMeA]NPNLPWSW[NMeNle][NMeNle]S[ξC]G-NH2; thioether N-14) | 1 to 9.9 nM
CCCC[C@H]1C(=O)N(C)[C@@H](CCCC)C(=O)C[C@@H](CO)C(=O)NC(C(=O)NCC(N)=O)CSCC(=O)N[C@@H](Cc2ccc(O)cc2)C(=O)N(C)[C@@H](C)C(=O)N[C@@H](CC(N)=O)C(=O)N2CCC[C@H]2C(=O)N[C@@H](CC(N)=O)C(=O)N[C@@H](CC(C)C)C(=O)N2CCC[C@H]2C(=O)N[C@@H](Cc2c[nH]c3ccccc23)C(=O)N[C@@H](CO)C(=O)N[C@@H](Cc2csc3ccccc23)C(=O)N1C (stereo partly drawn) [Example 9141] ({CH2CO}-Y[NMeA]NPNLPWS[Bta][NMeNle][X7][ξC]G-NH2; thioether N-13) | 10 to 99.9 nM
CCCC[C@H]1C(=O)N(C)[C@@H](CCCC)C(=O)N[C@@H](CO)C(=O)NC(C(=O)NCC(N)=O)CSCC(=O)N[C@@H](Cc2ccc(O)cc2)C(=O)N(C)[C@@H](C)C(=O)N[C@@H](CC(N)=O)C(=O)N2CCC[C@H]2C(=O)N[C@@H](CC(N)=O)C(=O)N[C@@H](CC(C)C)C(=O)N2C[C@H](O)C[C@H]2C(=O)N[C@@H](Cc2c[nH]c3ccccc23)C(=O)N[C@@H](CO)C(=O)N[C@@H](Cc2c[nH]c3ccccc23)C(=O)N1C (stereo partly drawn) [Example 9142] ({CH2CO}-Y[NMeA]NPNL[Hyp]WSW[NMeNle][NMeNle]S[ξC]G-NH2; thioether N-14) | 1 to 9.9 nM
CCCC[C@H]1C(=O)N(C)[C@@H](CCCC)C(=O)N[C@@H](CO)C(=O)NC(C(=O)NCC(N)=O)CSCC(=O)N[C@@H](Cc2ccc(O)cc2)C(=O)N(C)[C@@H](C)C(=O)N[C@@H](CC(N)=O)C(=O)N2CCC[C@H]2C(=O)N[C@@H](CC(N)=O)C(=O)N[C@@H](CC(C)C)C(=O)N2C[C@H](O)C[C@H]2C(=O)N[C@@H](Cc2c[nH]c3ccccc23)C(=O)N[C@@H](CO)C(=O)N[C@@H](Cc2csc3ccccc23)C(=O)N1C (stereo partly drawn) [Example 9143] ({CH2CO}-Y[NMeA]NPNL[Hyp]WS[Bta][NMeNle][NMeNle]S[ξC]G-NH2; thioether N-14) | 10 to 99.9 nM
CCCC[C@H]1C(=O)N(C)[C@@H](CCCC)C(=O)N[C@@H](CCCNC(=N)N)C(=O)NC(C(=O)NCC(N)=O)CSCC(=O)N[C@@H](Cc2ccc(O)cc2)C(=O)N(C)[C@@H](C)C(=O)N[C@@H](Cc2cnc[nH]2)C(=O)N2CCC[C@H]2C(=O)N[C@@H](CC(N)=O)C(=O)N[C@@H](CC(C)C)C(=O)N2CCC[C@H]2C(=O)N[C@@H](Cc2c[nH]c3ccccc23)C(=O)N[C@@H](CO)C(=O)N[C@@H](Cc2c[nH]c3ccccc23)C(=O)N1C (stereo partly drawn) [Example 9144] ({CH2CO}-Y[NMeA]HPNLPWSW[NMeNle][NMeNle]R[ξC]G-NH2; thioether N-14) | 1 to 9.9 nM
CCCC[C@H]1C(=O)N(C)[C@@H](CCCC)C(=O)N[C@@H](CCCNC(=N)N)C(=O)NC(C(=O)NCC(N)=O)CSCC(=O)N[C@@H](Cc2ccc(O)cc2)C(=O)N(C)[C@@H](C)C(=O)N[C@@H](Cc2cnc[nH]2)C(=O)N2CCC[C@H]2C(=O)N[C@@H](CC(N)=O)C(=O)N[C@@H](CC(C)C)C(=O)N2CCC[C@H]2C(=O)N[C@@H](Cc2c[nH]c3ccccc23)C(=O)N[C@@H](CO)C(=O)N[C@@H](Cc2csc3ccccc23)C(=O)N1C (stereo partly drawn) [Example 9145] ({CH2CO}-Y[NMeA]HPNLPWS[Bta][NMeNle][NMeNle]R[ξC]G-NH2; thioether N-14) | 1 to 9.9 nM
CCCC[C@H]1C(=O)N(C)[C@@H](CCCC)C(=O)N[C@@H](CCCNC(=N)N)C(=O)NC(C(=O)NCC(N)=O)CSCC(=O)N[C@@H](Cc2ccc(O)cc2)C(=O)N(C)[C@@H](C)C(=O)N[C@@H](Cc2cnc[nH]2)C(=O)N2CCC[C@H]2C(=O)N[C@@H](CC(N)=O)C(=O)N[C@@H](CC(C)C)C(=O)N2C[C@H](O)C[C@H]2C(=O)N[C@@H](Cc2c[nH]c3ccccc23)C(=O)N[C@@H](CO)C(=O)N[C@@H](Cc2c[nH]c3ccccc23)C(=O)N1C (stereo partly drawn) [Example 9146] ({CH2CO}-Y[NMeA]HPNL[Hyp]WSW[NMeNle][NMeNle]R[ξC]G-NH2; thioether N-14) | 1 to 9.9 nM
CCCC[C@H]1C(=O)N(C)[C@@H](CCCC)C(=O)N[C@@H](CCCNC(=N)N)C(=O)NC(C(=O)NCC(N)=O)CSCC(=O)N[C@@H](Cc2ccc(O)cc2)C(=O)N(C)[C@@H](C)C(=O)N[C@@H](Cc2cnc[nH]2)C(=O)N2CCC[C@H]2C(=O)N[C@@H](CC(N)=O)C(=O)N[C@@H](CC(C)C)C(=O)N2C[C@H](O)C[C@H]2C(=O)N[C@@H](Cc2c[nH]c3ccccc23)C(=O)N[C@@H](CO)C(=O)N[C@@H](Cc2csc3ccccc23)C(=O)N1C (stereo partly drawn) [Example 9147] ({CH2CO}-Y[NMeA]HPNL[Hyp]WS[Bta][NMeNle][NMeNle]R[ξC]G-NH2; thioether N-14) | 1 to 9.9 nM
